Laboratory results taken from patent US10532085B2, “Methods for increasing intracellular activity of Hsp70” (Orphazyme A/S, priority 2010, dated 2020).

What was measured:
[1] = test system: primary fibroblasts from Niemann-Pick Disease type A patient; assay: Lysosomal cross-sectional area in NPDA patient fibroblasts; assay type: cell-based, Human; settings: pulse-chase, added at T=0, measured at 24 h, 48 h, 72 h and 1 week; patient id 83/24; effect reversible
Procedure: FIG. 5: Pulse-Chase experiment. rhHSP70 (recombinant human HSP70) was added to primary fibroblasts from Niemann-Pick Disease type A patient (patient id: 83/24) at T=0, measurements of lysosomal cross-sectional area were performed at 24 h, 48 h, 72 h and 1 week after administration. […] Conclusion: The effect of rhHSP70 is reversible and lasts ca. 1 week.
FIG. 6: Arimoclomol dose-titration experiment. Various concentrations of Arimoclomol (‘Ari’) added for 48 h to primary fibroblasts from Niemann-Pick Disease type A patient (patient id: 83/24). Read-out: lysosomal cross-sectional area.

[2] = test system: primary fibroblasts from Niemann-Pick Disease type C1 patient; assay: Lysosomal cross-sectional area, laser confocal microscopy, NPC1 fibroblasts; assay type: cell-based, human; settings: Alexa Fluor 488 labelled, added for 48 h; GM17918
Procedure: FIG. 7: Test of rhHSP70 in non-sphingolipidosis. rhHSP70 labelled with Alexa Fluor 488 (for visualization of uptake) was added for 48 h to primary fibroblasts from Niemann-Pick Disease type C1 patient (Coriell Cell Repository ID: GM17918). Read-out: lysosomal cross-sectional area (Primary cellular pathology), performed by laser confocal microscopy.

[3] = test system: primary fibroblasts from Mucopolysaccharidosis type IIIA patients; assay: Volume of Acidic Compartment (VAC) by FACS, MPS IIIA fibroblasts; assay type: cell-based, human; settings: added for 48 h, MPSIIIA GM00879
Procedure: FIG. 10: Test of rhHSP70 in non-sphingolipidosis. rhHSP70 was added for 48 h to primary fibroblasts from Sandhoff Disease and Mucopolysaccharidosis type IIIA (aka Sanfilippo type IIIA) patients (Coriell Cell Repository ID: Sandhoff: GM11098, MPSIIIA: GM00879). Ctrl=Normal Control fibroblasts. Read-out: Volume of Acidic Compartment (VAC) (Primary cellular pathology), performed by FACS.

MCF-7-LC3-EGFP cells = assay: Autophagy induction (LC3-EGFP translocation); assay type: cell-based, human; settings: 20 μg/mL added to culture medium
From the text: FIG. 11: rhHSP70 induces autophagy in MCF-7-LC3-EGFP cells.

[4] = Liposome 90° light scattering, LUVs with negatively charged lipids; assay type: binding; settings: neutral pH; irrespective of charge density (−1 to −2)
From the text: Thus, we investigated the interaction of Hsp70 with palmitoyl-oleoyl-phosphatidylcholine (POPC) large unilamellar vesicles (LUVs) containing various membrane-associated anionic lipids, i.e. palmitoyl-oleoyl-phosphatidylserine (POPS; primarily in plasma membrane), cardiolipin (primarily mitochondrial) and BMP (primarily in late endosomes/lysosomes). Taking into account the increasingly acidic milieu of the endo-lysosomal compartment upon maturation to lysosomes, we compared the protein-lipid interactions in neutral (pH 7.4) and acidic (pH 6.0) conditions. […] As reported earlier for POPS, all negatively charged lipids enhanced the binding of rHsp70 to the liposomes at neutral pH approximately 4-fold irrespective of the charge density on the liposome surface (ranging from −1 to −2).
The tryptophan fluorescence spectra (RFI) and liposome 90° light scattering (RSI) were analyzed in a HEPES buffer (20 mM HEPES, 0.1 mM EDTA, pH 7.4 or 6.0 as indicated) employing LUVs consisting of indicated lipids essentially as described in the art. For the RFI, LUVs were added in 10 μM aliquots and spectra recorded after a 20 min stabilization period. For the RSI, recombinant proteins were added in 0.12 nmol aliquots.

NPDA cells = assay: Volume of the lysosomal compartment in NPDA cells; assay type: cell-based, Human
From the text: BMP binds ASM with high affinity and stimulates its ability to hydrolyze sphingomyelin to ceramide and phosphorylcholine. […] In order to test whether ASM is responsible for the lysosome stabilizing effect we treated the cells with desipramine, a well characterized pharmacological ASM inhibitor. […] It should be noted that akin to rHsp70, also rASM localized to the lysosomes.
Primary antibodies used included mouse monoclonal antibodies against Hsp70 (2H9; kindly provided by Boris Margulis, Russian Academy of Sciences, St. Petersburg, Russia), glyceraldehyde-3-phosphate dehydrogenase (GAPDH; Biogenesis), BMP (6C4), lysosomal integral membrane protein-1 (H5C6; developed by J. Thomas August and James E. K. Hildreth and obtained from the Developmental Studies Hybridoma Bank developed under the auspices of the NICHD and maintained by The University of Iowa, Department of Biological Sciences, Iowa City, USA). Proteins separated by 10% SDS-PAGE and transferred to a nitrocellulose membrane were detected by using indicated primary antibodies, appropriate peroxidase-conjugated secondary antibodies from Dako, ECL Western blotting reagents (Amersham), and Luminescent Image Reader (LAS-1000Plus, Fujifilm). For immunocytochemistry Alexa […] or Alexa Fluor®-488-conjugated secondary antibodies were used. […] Fluorescence images were taken using a Zeiss Axiovert 100M laser scanning microscope. […]

NPC−/− mice [5] = assay: NPC1 in vivo pilot study: growth curves; settings: 10 mg/kg IP three times per week from 3 weeks of age vs PBS
Procedure: FIG. 12: Control NPC−/− mice (A) have shallower and more sporadic growth patterns than HSP70 treated mice (B). Points where growth curves stop abruptly, indicates mice killed for organs. In panel A: Series 1 and 3 are female; Series 2 and 5-8 are male. In panel B: Series 2 and 4-7 are female; Series 1, 3, and 8 are male.
(§1) Eight treated (rHSP70) NPC^−/− versus eight control (PBS only) NPC^−/− controls. Mice were treated IP three times per week with either 10 mg/kg of rHSP70 or vehicle alone (PBS) from 3 weeks of age. Three control and three treated mice were sacrificed at 7 or 9 weeks old (i.e. after 4 or 6 weeks of treatment, respectively). Organs were perfused (PBS), weighed and frozen for biochemical and immunohistochemical analysis.

NPC−/− mice [6] = assay: NPC1 in vivo pilot study: video recording and observation of condition; settings: 10 mg/kg IP three times per week
Procedure: as §1
Due to the small number of animals remaining after the 7 and 9 week time points we were unable to draw any conclusions regarding increased survival.

NPC−/− mice [7] = assay: NPC1 in vivo pilot study: tissue GSLs (fluorescent HPLC)
Procedure: as §1
(§2) Organs were homogenised without any added buffer and frozen as 10 ul aliquots. Fresh aliquots were reconstituted to 100 ul with PBS prior to biochemical analysis. Protein determination for each aliquot was performed by BCA protein assay. Cholesterol assays were performed using the Amplex Red Cholesterol Assay from Invitrogen^i. Sphingosine was isolated by sphingoid base extraction and analysed by HPLC^i. GSLs were extracted and analysed by fluorescent HPLC^i. All results were standardised for protein content.

NPC−/− mice [8] = assay: NPC1 in vivo pilot study: brain sphingosine (HPLC)
Procedure: as §1, §2

[9] = video recording at 9 and 10 weeks

## rHsp70: recombinant (human) heat shock protein 70; in some tests labelled with Alexa Fluor 488
[1]
  duration of the effect on lysosomal cross-sectional area: ca. 1 week
[2]
  lysosomal cross-sectional area (primary cellular pathology): effectively reverts the lysosomal primary pathology
[3]
  Volume of Acidic Compartment (VAC): effectively reverts the lysosomal primary pathology
MCF-7-LC3-EGFP cells
  translocation and accumulation of LC3-EGFP (marker for macroautophagy): leads to translocation and accumulation of LC3-EGFP
[4]
  enhancement of binding to liposomes by negatively charged lipids: approximately 4 fold
NPDA cells
  volume of the enlarged lysosomal compartment in NPDA cells: normalize the volume
NPC−/− mice [5]
  growth curves (body weight): rise more steadily and reach higher weights
NPC−/− mice [6]
  condition at the point of culling: deteriorated quite badly within the space of a few days
NPC−/− mice [6]; [9]
  activity and tremor on video: more active and had increased tremor
  size and coat condition: larger, with better coat condition
NPC−/− mice [7]; 7 weeks
  GSLs in spleen and brain: reductions in spleen and brain, but are not statistically significant
NPC−/− mice [7]; 7 weeks, p<0.05
  GSLs in liver: significant reduction
NPC−/− mice [7]; 9 weeks
  GSLs in tissues: no significant differences
NPC−/− mice [7]; at 9 weeks, compared with five-fold reduction in control mice
  fall of total GSL levels in the brain: less severe
NPC−/− mice [8]; 7 week
  sphingosine in brain: no significant difference
NPC−/− mice [8]; 9 week
  sphingosine in brain: slight, yet significant (p<0.005, **) increased levels of sphingosine
